According to patent US8779006B2, “Compositions and methods for treatment and prevention of osteoarthritis” (Nucitec S.A. de C.V., priority 2007, dated 2014):

Columns and labels:
[1] = tested on: patients with OA of the knee; experiment: Example 2 randomized double-blind active-controlled study: Lequesne's functional index; format: in vivo, human
Experimental: (§1) This was a 16-week, randomized, double-blind, active-controlled, parallel-group study. The study received Ethics Committee approval, was performed in accordance with the ICH Harmonized Guidelines for Good clinical Practice (GPC) and the Declaration of Helsinki. All patients provided written, informed consent before the start of the study.
(§2) 117 patients with OA of the knee (according to the American College of Rheumatology criteria) were included in the study. Patients were enrolled by public advertising and were studied at the San Jose Hospital in Queretaro, México. Entry criteria included: willingness to participate in the study, male and female patients aged at least 40 years of age with symptomatic evidence of OA in the knee for at least 1 year, radiographic evidence of Kellgren and Lawrence grade II to IV OA of the knee, and no intra-articular injection of corticosteroids within the last 3 months. Patients were excluded if they had: any history of adverse reaction to the study drugs, current pregnancy status, uncontrolled hypertension, active infection, undergone surgery/arthroscopy within three months, diagnosis of radiographic OA of Kellgren and Lawrence grade I.
(§3) Participants were assessed in-person during 6 visits conducted at monthly intervals. After giving written informed consent (visit #1), patients were screened and selected according to the predetermined criteria. Visit #2 was the baseline assessment. During this visit selected patients were assigned a unique patient identification number and randomized to receive 1 intra-articular monthly injection (10 mL) of Kondrium™, Kondrium™-F or methylprednisolone (80 mg) 1 month apart during the next 3 months (visits 3, 4 and 5). Visit #3, #4 and #5 served as a midpoint assessment and visit #6 was the final assessment corresponding to the end of the intervention period of the study. Kondrium™ is an aqueous formulation that contains 6.75% (w/v) sodium bicarbonate and 0.75% (w/v) calcium gluconate. Kondrium™-F is an aqueous formulation that contains 6.75% (w/v) sodium bicarbonate and 1.5% (w/v) calcium gluconate.
(§4) The primary efficacy variable was the change from the baseline to final assessment in the Western Ontario and McMastern University OA index (WOMAC subscale score for pain), and Lequesne's functional index.
(§5) Data analysis was performed using SPSS for Windows version 10.0. Baseline demographic variables and compliance were analyzed by means of the χ^2 test. A univariate analysis of variance (ANOVA) was used to determine whether the three treatment groups differed in mean values of change from a baseline in WOMAC and Lequesne's functional index. Treatment effect is shown as the main effect controlled by the baseline values. Pairwise comparisons between treatments were done with the LSD test. All statistical tests were performed at the 0.05 level of significance.

[2] = tested on: patients with OA of the knee; experiment: Example 2 randomized double-blind active-controlled study: WOMAC index; format: in vivo, human
Experimental: as §1, §2, §3, §4, §5

[3] = after 4 months of treatment, monthly intra-articular injection

## C[C@H]1C[C@@H]2[C@H]([C@@H](O)C[C@@]3(C)[C@H]2CC[C@]3(O)C(=O)CO)[C@@]2(C)C=CC(=O)C=C12 [Methylprednisolone, methylprednisolone]
[1]; [3]
  Lequesne functional index Maximum Walking Distance, change, mean: −0.75
  Lequesne functional index Maximum Walking Distance, final, mean: 2.90
  Lequesne functional index Normal activities, change, mean: −2.80
  Lequesne functional index Normal activities, final, mean: 4.62
  Lequesne functional index Pain, change, mean: −1.96
  Lequesne functional index Pain, final, mean: 2.86
[1]; before treatment
  Lequesne functional index Maximum Walking Distance, baseline, mean: 3.24
  Lequesne functional index Normal activities, baseline, mean: 6.93
  Lequesne functional index Pain, baseline, mean: 4.34
[1]; end of study vs baseline
  mean change in the Lequesne's functional index: −5.2
[2]; [3]
  WOMAC Pain, change, mean: −2.76
  WOMAC Pain, final, mean: 2.57
  WOMAC Physical functioning, change, mean: −7.34
  WOMAC Physical functioning, final, mean: 8.19
  WOMAC Stiffness, change, mean: −2.42
  WOMAC Stiffness, final, mean: 2.77
[2]; before treatment
  WOMAC Pain, baseline, mean: 4.72
  WOMAC Physical functioning, baseline, mean: 14.47
  WOMAC Stiffness, baseline, mean: 4.79
